# Assay results reported in the supplement of paper PMC13380429.
# How the values were obtained:
# Conditions in all cases: 72 h
# Vero E6 [1] = test: drug sensitivity score (DSS) for viability; higher = more toxic; extreme values may be limits of the assay
# Calu-3 [2] = test: as above
# HepG2 [3] = test: as above
# U2OS [4] = test: as above
# Vero E6 [5] = test: relative viability EC50 (midpoint between 100% and the lowest measured viability); higher = less toxic
# Calu-3 [6] = test: as above
# HepG2 [7] = test: as above
# U2OS [8] = test: as above
# Vero E6 [9] = test: cell viability relative to DMSO; higher = less toxic
# Calu-3 [10] = test: as above
# HepG2 [11] = test: as above
# U2OS [12] = test: as above
# Caco-2 [13] = test: drug sensitivity score (DSS) for viability; higher = more toxic; extreme values may be limits of the assay
# Caco-2 [14] = test: cell viability relative to DMSO; higher = less toxic
SMILES,drug sensitivity score (Vero E6 [1]),drug sensitivity score (Calu-3 [2]),drug sensitivity score (HepG2 [3]),drug sensitivity score (U2OS [4]),relative viability EC50 (Vero E6 [5]) [µM],relative viability EC50 (Calu-3 [6]) [µM],relative viability EC50 (HepG2 [7]) [µM],relative viability EC50 (U2OS [8]) [µM],cell viability (Vero E6 [9]; 1 nM) [%],cell viability (Vero E6 [9]; 10 nM) [%],cell viability (Vero E6 [9]; 100 nM) [%],cell viability (Vero E6 [9]; 1000 nM) [%],cell viability (Vero E6 [9]; 10000 nM) [%],cell viability (Calu-3 [10]; 1 nM) [%],cell viability (Calu-3 [10]; 10 nM) [%],cell viability (Calu-3 [10]; 100 nM) [%],cell viability (Calu-3 [10]; 1000 nM) [%],cell viability (Calu-3 [10]; 10000 nM) [%],cell viability (HepG2 [11]; 1 nM) [%],cell viability (HepG2 [11]; 10 nM) [%],cell viability (HepG2 [11]; 100 nM) [%],cell viability (HepG2 [11]; 1000 nM) [%],cell viability (HepG2 [11]; 10000 nM) [%],cell viability (U2OS [12]; 1 nM) [%],cell viability (U2OS [12]; 10 nM) [%],cell viability (U2OS [12]; 100 nM) [%],cell viability (U2OS [12]; 1000 nM) [%],cell viability (U2OS [12]; 10000 nM) [%],drug sensitivity score (Caco-2 [13]),cell viability (Caco-2 [14]; 1 nM) [%],cell viability (Caco-2 [14]; 10 nM) [%],cell viability (Caco-2 [14]; 100 nM) [%],cell viability (Caco-2 [14]; 1000 nM) [%],cell viability (Caco-2 [14]; 10000 nM) [%]
CC(C)c1cc2c(cc1S(=O)(=O)O)[C@@]1(C)CCC[C@@](C)(C(=O)O)[C@@H]1CC2 [ecabet],0,0,0,0,> 10,> 10,> 10,> 10,96.4,96.1,96.9,96.9,107,109,107,112,110,99.5,105,110,93.8,112,104,96.7,93.7,99.1,95,103,,,,,,
C#Cc1cccc(Nc2ncnc3cc(OCCOC)c(OCCOC)cc23)c1 [erlotinib],7.1,10.6,2.4,0.4,1.36,0.453,,> 10,111,104,92,73.4,26.8,107,109,86.2,52,30.1,108,122,104,97.8,58.2,96.7,96.4,94.2,93.5,82.9,4.7,105,92.5,98.2,79.7,54.2
C[C@]12CC[C@@H]3c4ccc(OC(=O)c5ccccc5)cc4CC[C@H]3[C@@H]1CC[C@@H]2O [estradiol-benzoate],,0,0,0,,> 10,> 10,> 10,,,,,,101,96.4,98.6,94.3,88.6,104,118,103,105,97.8,108,105,106,103,99.8,,,,,,
N=C(N)N [guanidine],0.9,,0,0,,,> 10,> 10,76.8,106,82.2,110,69.3,,,,,,101,117,101,96.2,105,105,106,105,99.9,108,,,,,,
